Article PMC6614837 (Nucleic Acids Research, 2019)

Columns and labels:
[1] = target: T1, RNase P holoenzyme from Thermotoga maritima (Thermotoga maritima, UniProt Q9X1H4); experiment: Real-time fluorescence-based (FRET) RNase P activity assay with minihelix (Mh) substrate; assay type: biochemical; settings: for IC50: fluorescent Mh substrate 270 nM, holoenzyme 33 nM, 10% DMSO, 37°C, 400 mM AmOAc, 100 mM MgCl2
T1 construct: made in house
T1 sequence (Q9X1H4 1-117): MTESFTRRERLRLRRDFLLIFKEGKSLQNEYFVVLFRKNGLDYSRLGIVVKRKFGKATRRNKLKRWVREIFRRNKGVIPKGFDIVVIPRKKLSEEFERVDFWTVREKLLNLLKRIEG
How it was run: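 Reconstituted holoenzyme (P RNA:P protein 1:1.1) at 33 nM with 270 nM minihelix labelled Alexa Fluor 488/BHQ quencher, in buffer H (pH 7.4, 400 mM AmOAc, 100 mM MgCl2), 10% DMSO, 37°C. Cleavage followed as fluorescence increase (ex 485, em 535 nm); initial velocities from linear slopes.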

[2] = target: T1, RNase P holoenzyme from Thermotoga maritima; experiment: Real-time fluorescence-based RNase P activity assay with bipartite pre-tRNA substrate; assay type: biochemical; settings: fluorescent bipartite pre-tRNA substrate, holoenzyme 33 nM, 10% PEG 200 in place of DMSO
Procedure: The reconstitution of the RNase P holoenzyme was performed as described in ([40],[19]). This protocol produces a homogeneous and functional ribozyme that can be crystallized by mixing P RNA and P protein in a 1:1.1 molar ratio in 1× TH buffer (33 mM Tris–HCl, 66 mM HEPES, pH 7.4) and 400 mM ammonium acetate (AmOAc). The mixture was heated to 95°C for 2 min in a water bath, then chilled on ice for 2 min, after which MgCl2 was added to a final concentration of 100 mM. […] This higher concentration was used in all experiments described herein. The holoenzyme was further incubated at 50°C for 10 min and 37°C for 40 min. The final concentration of holoenzyme was 333 nM (35.6 μg/ml of P RNA and 4.7 μg/ml of P protein).
The bipartite pre-tRNA substrate derived from pre-tRNA^Phe from T. maritima (Supplementary Figure S13) was designed for the ease of chemical synthesis and conceived from the fact that the anticodon loop is not required for RNase P recognition (Reiter et al.). As for the Mh substrate, fluorescent bipartite pre-tRNA was coupled to Black Hole Quencher 1 (BHQ1) at the 5′-end of the 5′ oligo, and to Alexa Fluor 488 at the 3′-end of the 3′ oligo (see Supplementary Table S1). The probes were purchased from Integrated DNA Technologies (IDT). A requested scale of 250 nmol yielded 27.4 nmol (0.36 mg) for the 5′ oligo and 3.8 nmol (50 μg) for the 3′ fluorescent oligo. Before use, the probes were diluted from a 100 μM stock (dissolved in water) and assembled by mixing and heating to 3.6 μM in activity buffer L (Tris–HCl pH 7.4 33 mM, HEPES 66 mM, 100 mM AmOAc and 10 mM MgCl2).
Reactions were performed in a total volume of 20 μl. Pipetting was done by hand using multichannel pipettes. First, an 18 μl reaction mixture containing 16.5 μl of activity buffer (H for Mh or L supplemented with 10% PEG 200 for bipartite pre-tRNA) and 270 nM (Mh) or 135 nM (bipartite pre-tRNA) (1.5 or 0.7 μl of the 3.6 μM stock) of the fluorescent substrate probe was pre-incubated on ice for at least 5 m in a black polystyrene 384-well microtiter microplate with a flat transparent bottom (Corning ref 3540). The holoenzyme was then added at a final concentration of 33 nM (2 μl of a 333 nM stock) in 1× TH buffer and mixed. Kinetic activity was monitored in a Synergy MX Multimode Detector (BioTek) at 37°C with rapid agitation. At least 20 readings were taken per well every 15 s. The probe was excited at 485 nm, and its emission was monitored at 535 nm with an integration time of 1 s. From the plots of relative fluorescent units (RFU) versus time, linear regression was used to determine the slopes in the linear portion of the curves, using at least 12 data points to obtain initial velocities. Non-linear fitting to obtain the Michaelis–Menten parameters was performed using GraphPad Prism® 6.01 software. […]

Compound	IC50 [1] [µM]	IC50 [2] [µM]	Ki ([1]; competitive inhibition model, varying fluorescent Mh substrate) [µM]
O=C1C=C2CC3(O)COc4c(ccc(O)c4O)C3=C2C=C1O (stereo not shown) [Hematein, 3,4,6a,10-tetrahydroxy-6a,7-dihydroindeno[2,1-c]chromen-9(6H)-one]	4.5 ± 0.9	87.9 ± 19.7	
O=C1C=CC(=O)c2c(O)cccc21 [Juglone, 5-hydroxy-1,4-naphthoquinone]	12.8 ± 1.9	11.9 ± 1.7	
O=C1c2ccccc2C(=O)c2c(O)c(O)cc(O)c21 [Purpurin, 1,2,4-trihydroxyanthraquinone]	96.2 ± 21.7	13.1 ± 2.3	1.9 ± 0.4
